These results are taken from article PMC8294803, “A Roadmap to the Structure-Related Metabolism Pathways of Per- and Polyfluoroalkyl Substances in the Early Life Stages of Zebrafish (Danio rerio)” (Environmental Health Perspectives, 2021).

Data set [1] deals with zebrafish embryos. Briefly: Time courses of carboxamides and PFCA metabolites in zebrafish embryos/larvae. In kind it is in vivo, Danio rerio. The note with it: zebrafish exposed to 5 μM of 19, 31 and 38 separately, N=20, three replicates. As to the method: Time courses of carboxamides (19, 31, and 38) and corresponding perfluoroalkyl carboxylic acid (PFCA) metabolites in zebrafish larvae were investigated. The procedure of zebrafish embryo collection was described above. Twenty embryos were randomly assigned into each well of a 24-well plate. Subsequently, 15 wells were dosed with 3mL of each chemical ( 5μM ). […] The exposure medium was prepared fresh and changed each day, and dead larvae were discarded. For each chemical, 3 wells were harvested every 24 h, and the surviving larvae were transferred to three different tubes for further PFAS extraction ( N=12–18 ).

Data set [2] deals with zebrafish larvae. In words: Identification of taurine conjugates by the DIPIC-Frag method in zebrafish larvae. Type of data set: in vivo, Danio rerio. Conditions: among 74 PFAS. From the text: To identify the taurine conjugates in zebrafish larvae exposed to PFAS, we used the data-independent precursor isolation and characteristic fragment (DIPIC-Frag) method developed in previous studies ([Peng et al. 2015], [2016]) to enhance the coverage inspired by the detection of the characteristic fragment from taurine conjugates ( [taurine-H]^− , m/z 124.0063). Then, the taurine fragment peak was extracted from each AIF window across all 243 raw MS data. Once the taurine fragment peak was detected, corresponding precursor ions were identified from the same window and sample by aligning their chromatographic peaks. The precursor ions were further confirmed by their co-occurrences with the taurine fragment across samples. Once precursor ions were identified, the compound formulas and structures were predicted by interpreting high-resolution MS and MS/MS spectra, as mentioned above.

The subject of data set [3] is zebrafish larvae. In words: Bioconcentration factors (BCF) of PFAS in zebrafish larvae. Conditions: for BCF 0.5µM / BCF 5µM: zebrafish larvae, 120 hpf, three replicates; for BCF 0.5µM: 0.5 µM exposure; for BCF 5µM: 5 µM exposure. The gist of the method: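 Zebrafish embryos collected within 1 h post-spawning were exposed individually to each PFAS in facility water with DMSO controls, medium renewed every 24 h from 24 to 96 hpf. Live hatched larvae collected at 120 hpf, wet-weighed, extracted with dichloromethane/methanol and analysed by UHPLC–high-resolution MS against mass-labelled standards.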

Data set [4] has as its system zebrafish embryos. The note with it: for pericardial oedemata, Mean / spinal curvature, Mean / tail dysplasia, Mean: 5μM through 120 hpf, malformation rate; for Mortality (%): 5 µM, exposure through 120 hpf.
Data set [5] addresses liver fatty acid binding protein (L-FABP). On the set-up: method as in Yang et al. 2020. The note with it: ref Yang et al. 2020; read-out: Kd (μM), L-FABP binding affinity; cited from earlier work.
Data set [6] has as its system zebrafish larvae. In words: Nontargeted analysis of PFAS metabolites in zebrafish larvae (high-resolution MS). The note with it: 5μM through 120 hpf, single replicates; listed as 1H-PFBA. The method, then:
Zebrafish embryos were collected immediately after spawning, within 1 h, and subsequently transferred to 24-well plates with 1mL of facility water ( 0.036g sea salt, 0.15g sodium bicarbonate in 2L of reverse osmosis water). […] Three well replicates on the same plate were conducted for each concentration of individual chemical. […] Seven batches of experiments were performed to test all 74 PFAS. DMSO controls were incorporated in each batch of exposure experiments. Three replicates were performed for each treatment group, and 20 embryos were used for each replicate. […] For daily replenishment, 2.5mL of old exposure medium were replaced with freshly prepared medium every 24 h from 24 to 96 h post fertilization (hpf). Hatched or dead embryo numbers were recorded every 24 hpf, after which dead embryos were discarded from the growth media. Dead embryos or unhatched embryos were not used for PFAS measurement because the metabolism of PFAS might have been impacted. Zebrafish larvae collection occurred at 120 hpf. First, the larvae were anesthetized by cooling the plate in ice water (0–4°C) for ∼20 min . Then 8–15 larvae in each well were transferred into 1.5-mL tubes. Exposure media was carefully removed, and then the larvae were weighed (wet weight) after blotting excess water with a paper towel. […] Samples were stored at −80 °C until further chemical analysis was performed. Survival rate and hatching rate were calculated by summarizing all the documented data from the whole treatment duration. […] The exposure experiment of PFOSA was repeated using the same procedure as described above.
Each sample was spiked with 2μL of 0.2μg/mL mass-labeled PFAS mixture. Following this, 500μL of dichloromethane/methanol (2:1, vol/vol) was added to each sample for PFAS extraction. Larvae were then homogenized via ultrasonic probe, followed by 30 min of shaking and 30 min of sonication. Each sample was centrifuged at 14,000×g for 5 min, after which the supernatant was transferred to new tubes. Extraction was repeated once and the two supernatants were combined, evaporated under nitrogen flow, and reconstituted in 200μL of methanol for MS analysis.
Three microliters of each zebrafish extract was applied to a C18 column ( 1.5μm; 2.1mm×50mm; Thermo Scientific) and analyzed using a Vanquish ultra-HPLC system (Thermo Fisher Scientific) coupled to a Q Exactive high-resolution mass spectrometer (Thermo Fisher Scientific). The sampler and column compartments were maintained at 4°C and 40°C, respectively. The aqueous mobile phase solution (A) consisted of water, whereas the organic mobile phase solution (B) consisted of acetonitrile. […] MS data was acquired in full scan mode (100–1000 m/z, 70,000 mass resolution, 3×10^6 maximum ions collected per 100 ms), and tandem MS (MS/MS) data was recorded by all-ion fragmentation (AIF) mode. Negative and positive ion modes were carried out simultaneously at a 10-min method duration. […] An overview of the analyses conducted on the various PFAS is available in Table S2.
Nontargeted data analysis was accomplished with R scripts that are available on Github (https://github.com/huiUofT/PFASmetabolite). […] The peak features were matched across samples with a mass tolerance of 2.5 ppm and a RT window of 20 s, after RT adjustment. The ratio of abundances of each feature in treatment groups relative to the control group (DMSO) was calculated. The p -values of the difference between two groups were determined by student’s t -tests.

Where “and” joins values, the source holds several entries; their conditions need not be identical. Equal entries are not always repeated.

On to `O=C(O)C(F)(F)C(F)(F)C(F)(F)F` [PFBA (12)], for which the “Peak intensity in zebrafish” value in data set [1] (24 hpf) is 10634213 and 16343253 and 15866316; in data set [1] (48 hpf) it was 25172596 and 26956389 and 28007592; in data set [1] (72 hpf), 26852594 and 32851030 and 26877542; in data set [1] (96 hpf), 47637483 and 46740315 and 40653414; in data set [1] (120 hpf), 68162507 and 69974600 and 72855428.
Take `O=C(O)C=CC(F)(C(F)(F)F)C(F)(F)F` [compound 56, 3-(Perfluoroisopropyl)-2-propenoic acid]: in data set [2], the Taurine conjugates detected result is “taurine conjugates were detected”. For the same molecule, in data set [3], the “BCF 0.5µM” value turned out to be 2.65 L/kg and the “BCF 5µM” value is 1.6 ± 0.21 L/kg. In addition, in data set [4], the “pericardial oedemata, Mean” value is recorded as 0.00%; the “spinal curvature, Mean” value is listed as 0.00%; the “tail dysplasia, Mean” value is given as 0.00%; the “Mortality (%)” value amounted to 4.4%.
Consider `COC(=O)CCC(F)(F)C(F)(F)C(F)(F)C(F)(F)F` [compound 39, Methyl 2H,2H,3H,3H-perfluoroheptanoate], for which the Taurine conjugates detected entry in data set [2] is on record as “taurine conjugates were detected”. Further, in data set [4], the “pericardial oedemata, Mean” value is given as 0.00%; the “spinal curvature, Mean” value amounted to 0.00%; the “tail dysplasia, Mean” value came to 0.00%; the “Mortality (%)” value was determined as 1.1%.
Consider “3-(Perfluoro-2-butyl)propane-1,2-diol [compound 30]”, for which the Taurine conjugates detected result in data set [2] is reported as “taurine conjugates were detected”. Further, in data set [4], the “pericardial oedemata, Mean” value was 2.22%; the “spinal curvature, Mean” value was found to be 2.22%; the “tail dysplasia, Mean” value was 0.00%; the “Mortality (%)” value stood at 0%.
As for `O=C(O)C(F)(F)C(F)(F)C(F)(F)C(F)F` [1H-PFPeA], the “Peak intensity in zebrafish” value in data set [1] (24 hpf) is 41617598 and 43836041 and 44656574; in data set [1] (48 hpf), 60989972 and 64452114 and 58767796; in data set [1] (72 hpf), 101000000 and 97804534 and 98584848; in data set [1] (96 hpf) it was 168000000 and 176000000 and 174000000; in data set [1] (120 hpf), 221000000 and 206000000 and 215000000.
Take `O=C(O)C(F)(F)C(F)(F)C(F)F` [compound 4, 4H-Perfluorobutanoic acid]: the Kd in data set [5] is 352 µM. Further, the “Concentration in zebrafish larvae directly exposed” value in data set [3] (5μM of the PFCA itself) amounted to 7.0 ± 1.3 µM. In data set [3], the “BCF 0.5µM” value is on record as 3.397 L/kg and the “BCF 5µM” value turned out to be 1.9 ± 0.4 L/kg. Besides, the “Peak intensity of PFCA in zebrafish embryos directly exposed to the PFCA” value in data set [6] is 18758096 and 21668103 and 32644288. In data set [4], the “pericardial oedemata, Mean” value worked out at 1.11%; the “spinal curvature, Mean” value is listed as 2.22%; the “tail dysplasia, Mean” value amounted to 0.00%; the “Mortality (%)” value is on record as 0%.
With `OCCCC(F)(F)C(F)(F)C(F)(F)F` [compound 49, 3-(Perfluoropropyl)propanol], in data set [2], the Taurine conjugates detected result is “taurine conjugates were detected”. Further, in data set [4], the “pericardial oedemata, Mean” value is given as 0.00%; the “spinal curvature, Mean” value came out at 0.00%; the “tail dysplasia, Mean” value was 0.00%; the “Mortality (%)” value amounted to 1.1%.
With `O=C(O)C(F)(F)C(F)(F)C(F)(F)C(F)(F)F` [PFPeA, perfluoropentanoic acid], the “Peak intensity in zebrafish” value in data set [1] (24 hpf) is 42022849 and 47643542 and 46800668; in data set [1] (48 hpf) it was 46439212 and 83368187 and 82483907; in data set [1] (72 hpf), 149000000 and 148000000 and 143000000; in data set [1] (96 hpf), 242000000 and 252000000 and 243000000; in data set [1] (120 hpf), 224000000 and 215000000 and 223000000.
